The values below come from patent US7425573B2, “Use of annellated pyrrole compounds in the treatment of articular cartilage or subchondral bone degeneration” (priority 2001, dated 2008).

Data set [1] is described as follows: Clinical observation of dogs during 8 weeks of treatment. Type of data set: in vivo. Particulars: all dogs of the 3 experimental groups. Here is the method:
(§1) Twenty-one adult crossbred dogs (2-3 years old), weighing 20-25 kg each, were used in this study. Surgical sectioning of the anterior cruciate ligament (ACL) of the right knee through a stab wound was performed on all dogs as previously described (5,6). Prior to surgery, the animals were anesthetized intravenously with pentobarbital sodium (25 mg/kg) and intubated. Following surgery, the dogs were kept at a housing farm where they were free to exercise in a large pen.
(§2) The dogs were randomly separated into 3 treatment groups. Group 1 (n=7 dogs) was made up of dogs that received placebo (encapsulated methylcellulose) treatment (OA dogs); Groups 2 and 3 (n=7 dogs per group) received encapsulated ML3000 twice daily for 8 weeks at total doses of 2.5 and 5 mg/kg, respectively, beginning the day following surgery. The medication was administered 7 days/week throughout the duration of the study. All dogs were killed 8 weeks after surgery.

The next data set relates to interleukin-1β (IL-1β). The data set is described as follows: Immunohistochemistry, synovial membrane cell score for IL-1β in OA dogs. The note with it: 2.5 and 5 mg/kg/day. It counts as in vivo, dog. Here is the method: as §2
Cartilage and synovial membrane specimens were processed for immunohistochemical analysis as previously described (7,14). Briefly, specimens were fixed in 4% neutral buffered formalin for 24 hours, then embedded in paraffin. Sections (5 μm) of paraffin-embedded specimens were placed on Superfrost Plus slides (Fisher Scientific, Nepean, Ontario, Canada), deparaffinized in toluene, dehydrated in a graded series of ethanol, and preincubated with chondroitinase ABC (0.25 units/ml) in phosphate buffered saline (PBS; Sigma-Aldrich Canada) for 60 minutes at 37° C. […]
Synovial membrane. For synovial membrane analysis, a cell score of the different specimens was determined for each section using our published method (8). […] The percentage of cells staining positive for the specific antigen was evaluated in each field as described above for cartilage. […]

Data set [2] is described as follows: Plasma ML3000 level after immediate release dosage forms. Type of data set: in vivo. The note with it: immediate release dosage form, for 8 hours.
Another data set concerns rat adjuvant arthritis. Particulars: cited from earlier work.
Data set [3] deals with experimental osteoarthritis (OA) dog model. As to the kind of experiment: Experimental OA dog model, histologic grading of cartilage and synovial membrane. Type of data set: in vivo. Here is the method: as §1, §2
Histologic evaluation was performed on sagittal sections of cartilage from the lesioned areas of each femoral condyle and tibial plateau as described (7,8). Specimens were dissected, fixed in TissuFix #2 (Laboratoires Gilles Chaput, Montréal, Québec, Canada), and embedded in paraffin for histologic evaluation. Serial sections (5 μm) were stained with Safranin O. The severity of the OA lesions was graded on scale of 0-14, by 2 independent observers (DJ, JF), using the histologic/histochemical scale of Mankin et al (12). This scale evaluates the severity of OA lesions based on the loss of staining with Safranin O (scale 0-4), cellular changes (scale 0-3), invasion of the tidemark by blood vessels (scale 0-1), and structural changes (scale 0-6, where 0=normal cartilage structure and 6=erosion of the cartilage down to the subchondral bone). This scoring system was based on the most severe histologic changes within each cartilage section.
Representative specimens of synovial membrane from the gutters of the medial and lateral knee compartments were also dissected from underlying tissue. The specimens were fixed in TissuFix #2, embedded in paraffin, sectioned (5 μm), and stained with hematoxylin and eosin. Two synovial membrane specimens from each compartment were examined, serial selections were made throughout the specimens, and each one scored separately. The highest score from each specimen was recorded. The average was calculated and considered as a unit for the whole knee. The severity of synovitis was graded on a scale of 0-10 (13) by 2 independent observers (DVJ, JCF) adding the scores for 3 histologic criteria: synovial lining cell hyperplasia (scale 0-2), villous hyperplasia (scale 0-3), and degree of cellular infiltration by mononuclear and polymorphonuclear cells (scale 0-5).

For data set [4] the test system is unchanged. The data set is described as follows: Experimental OA dog model (ACL section), macroscopic grading of the knee. Type of data set: in vivo. Particulars: for reduction of size of cartilage lesions on tibial plateaus vs placebo: P<0.01; for width of osteophytes: mean±SEM, placebo 4.50±0.66, not significant; for osteophytes present (share of condyles): placebo 93%. Here is the method: as §1, §2
Immediately after killing, the right knee of each dog was dissected, placed on ice, and the synovial fluid aspirated. Each knee was examined by 2 independent, blinded observers (DVJ, JCF) for gross morphologic changes including the presence of osteophyte formation and cartilage lesions as previously described (5,6). The degree of osteophyte formation was graded by measuring the maximal width (mm) of the spur of each femoral condyle. The cartilage changes on the medial and lateral femoral condyles and tibial plateaus were graded separately under a dissecting microscope (Stereozoom; Bausch & Lomb, Rochester, N.Y.).
The area of the articular surface changes was measured and expressed in mm^2. The depth of erosion was graded on a scale of 0-4, as follows: 0=surface appears normal, 1=minimal fibrillation or a slight yellowish discoloration of the surface, 2=erosion extended into superficial or middle layers, 3=erosion extended into deep,layers, and 4=erosion extended to the subchondral bone.

The test system of a further data set is collagenase-1 (MMP-1). As to the kind of experiment: Immunohistochemistry, chondrocyte cell score for collagenase-1 in cartilage of OA dogs. Particulars: condyles and plateaus, both doses, slightly more pronounced at highest dosage. Type of data set: in vivo, dog. Here is the method:
as §2
Cartilage and synovial membrane specimens were processed for immunohistochemical analysis as previously described (7,14). Briefly, specimens were fixed in 4% neutral buffered formalin for 24 hours, then embedded in paraffin. […]
Cartilage. Quantification of the different antigens in cartilage was done using a published method (7,14). […] For each arthritic specimen, it was ensured prior to evaluation that an intact cartilage surface could be detected and used as a marker for validation of morphometric analysis. The total number of chondrocytes and the number of chondrocytes staining positive for the specific antigen were determined. The final results were expressed as the percentage of chondrocytes staining positive for the antigen (cell score) with the maximum score being 100%. […]

Data set [5] concerns carrageenan-induced paw edema. The note with it: rat; cited from earlier work.
A further data set concerns LTB4. As to the kind of experiment: LTB4 production in synovial explant culture of OA dogs (LPS, EIA). Type of data set: in vivo, dog. Particulars: both treated groups, explants with 1 μg/ml LPS; placebo 2.48±0.69 pg/mg tissue. Here is the method:
as §2
Representative specimens of synovial membrane from all dogs were aseptically dissected from underlying tissue. The specimens were rinsed several times in Dulbecco's Modified Eagle's Medium (DMEM; Gibco-BRL Life Technologies, Burlington, Ontario, Canada), and 150 mg of tissue incubated (duplicate) for 48 hours at 37° C. in a humidified atmosphere of 5% CO2/95% air in DMEM medium in the presence of 1 μg/ml lipopolysaccharide (LPS; Sigma-Aldrich Canada, Oakville, Ontario, Canada). The LTB4 was extracted from cultured synovium explants as follows: membranes were homogenized in EIA buffer (1 M phosphate, pH 7.4, containing 1% BSA, 4 M NaCl, 10 mM EDTA and 0.1% sodium azide) and centrifuged (30000 g, 20 minutes, 4° C.). Supernatants were collected and the levels of LTB4 determined using EIA (Cayman Chemical).

The test system of a further data set is PGE2. The data set is described as follows: PGE2 measurement in synovial fluid of OA dogs (EIA). Particulars: 2.5 and 5 mg/kg/day; placebo 652.8±149.9 pg/ml. Type of data set: in vivo, dog. Here is the method:
as §2
Synovial fluid taken at the time of sacrifice was centrifuged (14000 g, 15 minutes, 4° C.), and supernatants used for PGE2 determination. The level of PGE2 was determined using a specific enzyme immunoassay (EIA) (Cayman Chemical, Ann Arbor, Mich.).

In the next data set the test system is knee OA patients. The note with it: X-ray criteria, 5-year period; cited from earlier work.
The subject of data set [6] is experimental dog model of OA. Particulars: cited from earlier work.

Structures are written as SMILES.

`CC1(C)Cc2c(-c3ccccc3)c(-c3ccc(Cl)cc3)c(CC(=O)O)n2C1` [ML3000, [2,2-dimethyl-6-(4-chlorophenyl)-7-phenyl-2,3-dihydro-1H-pyrrolizine-5yl]-acetic acid]: in data set [1], the “body weight during the study period” value is “no change in the body weight”. For the same compound, in the data set with interleukin-1β (IL-1β), the “number of synovial lining cells staining positive for IL-1β” value was “dose-dependent and significant decrease”. The “plasma ML3000 concentration maintained” value was “above 100 ng/mL” in data set [2] (dose 2.5 mg/kg) and more than 200 ng/mL in data set [2] (dose 5 mg/kg). Moreover, the anti-inflammatory action result (with rat adjuvant arthritis; in data set [5]) was “potent anti-inflammatory action” in each case. For the same compound, the “villous hyperplasia of synovial membrane” value in data set [3] (5 mg/kg/day) is “significant reduction”. The “histologic severity of cartilage lesions on condyles vs placebo, significance” value in data set [3] (5 mg/kg/day, Mankin scale 0-14) is on record as “statistical significance was obtained”. Besides, the “histologic severity of cartilage lesions on tibial plateaus” value in [3] (2.5 and 5 mg/kg/day (P<0.002 and P<0.02), Mankin scale) was “statistically significant decrease”. Moreover, the “histologic severity of cartilage lesions on condyles vs placebo” value in data set [3] (ML3000-treated dogs, Mankin scale 0-14) is “less severe”. Moreover, the “reduction of size of cartilage lesions on tibial plateaus vs placebo” value in data set [4] (2.5 mg/kg/day, 8 weeks) is listed as 45%; in [4] (5 mg/kg/day, 8 weeks) it was 54%. For the same compound, the “reduction of size of cartilage lesions on femoral condyles vs placebo” value is 39% in data set [4] (2.5 mg/kg/day, 8 weeks, P<0.05) and 61% in data set [4] (5 mg/kg/day, 8 weeks, P<0.04). Besides, the width of osteophytes is given as 3.57±0.56 mm in data set [4] (2.5 mg/kg/day, 8 weeks) and 3.86±0.66 mm in data set [4] (5 mg/kg/day, 8 weeks). For the same compound, the “osteophytes present (share of condyles)” value was 93% in data set [4] (2.5 mg/kg/day, 8 weeks) and 86% in data set [4] (5 mg/kg/day, 8 weeks). Further, the “macroscopic appearance of synovial membrane vs placebo” value in data set [4] (ML3000-treated dogs, 8 weeks) was “thinner, contained fewer blood vessels, and the discoloration was less intense”. Besides, the “grade of cartilage lesions on tibial plateaus” value in data set [4] (both doses (2.5 and 5 mg/kg/day), scale 0-4) is listed as “significantly reduced”. Moreover, in data set [4] (treated dogs (2.5 and 5 mg/kg/day), scale 0-4), the “grade of cartilage lesions on femoral condyles” value was “did not reach statistical significance”. The “chondrocyte cell score for collagenase-1” value with collagenase-1 (MMP-1) is given as “significant decrease”. Also, the “LTB4 levels in cultured synovium” value in the data set with LTB4 is “statistically significant reduction”. Also, the “level of PGE2 in synovial fluid” value in the data set on PGE2 is “markedly decreased”.

Take `COc1ccc2c(c1)c(CC(=O)O)c(C)n2C(=O)c1ccc(Cl)cc1` [indomethacin]: in the data set with knee OA patients, the “effect on progression of cartilage damage” value was “even accelerated its progression”.

On to `CC(C(=O)O)c1ccc2c(c1)[nH]c1ccc(Cl)cc12` (centres unmarked) [Carprofen], for which the “effect on progression of experimental OA” value in [6] is recorded as “exhibit anti-OA effects”.

`CC(C(=O)O)c1ccc(C(=O)c2ccccc2)s1` (centres unmarked) [tiaprofenic acid]: the “effect on progression of cartilage damage” value with knee OA patients is reported as “could not retard the progression of cartilage damage”.

In the case of `O=C(O)Cc1ccccc1Nc1c(Cl)cccc1Cl` [diclofenac], the “effect on progression of experimental OA” value in data set [6] was “ineffective (10) or even demonstrated to accelerate cartilage damage”.

`CC(=O)Oc1ccccc1C(=O)O` [ASA, acetylsalicylic acid]: the “effect on progression of experimental OA” value in data set [6] was “ineffective (10) or even demonstrated to accelerate cartilage damage”.
